Experiment [1] relates to Entercoccus faecium 180-1. The experiment is described as follows: broth micro-dilution MIC. In kind it is cell-based. Here is the method:
(§1) The MIC's were determined using a standard broth micro-dilution assay.

Experiment [2] concerns Staphylococcus aureus 491. The experiment can be described thus: broth micro-dilution MIC. In kind it is cell-based. As to the method:
as §1

Experiment [3] has as its system Staphylococcus aureus 489. The experiment is described as follows: broth micro-dilution MIC. The class given is cell-based. As to the method:
as §1

In experiment [4] the test system is Staphylococcus aureus 447. The experiment is described as follows: broth micro-dilution MIC. In kind it is cell-based. Here is the method: as §1
Experiment [5] relates to Staphylococcus aureus SA1199A. The experiment can be described thus: broth micro-dilution MIC. The class given is cell-based. As to the method:
as §1

The subject of experiment [6] is vancomycin-resistant enterococci. The experiment is described as follows: broth micro-dilution, mean geometric MIC. The class given is cell-based, Enterococcus faecium and Enterococcus faecalis. The following applies: enterococci, 24-hour incubation.
In experiment [7] the test system is vancomycin-susceptible enterococci. The experiment is described as follows: broth micro-dilution, mean geometric MIC. The class given is cell-based, Enterococcus faecium and Enterococcus faecalis. The following applies: enterococci, 24-hour incubation.
The subject of experiment [8] is Enterococcus gallinarum 245. The experiment can be described thus: broth micro-dilution MIC. The class given is cell-based. The following applies: Enterococcus gallinarum 245. Here is the method:
(§2) The formula I compounds have in vitro and in vivo activity against Gram-positive pathogenic bacteria. The MIC's were determined using a standard broth micro-dilution assay.

Experiment [9] relates to Entercoccus faecium 180. The experiment is described as follows: broth micro-dilution MIC. The class given is cell-based. The following applies: Entercoccus faecium 180. As to the method: as §2
Experiment [10] deals with Entercoccus faecium 2041. The experiment can be described thus: broth micro-dilution MIC. The class given is cell-based. The note with it: Entercoccus faecium 2041. Here is the method:
as §2

Experiment [11] relates to Entercoccus faecium 276. The experiment can be described thus: broth micro-dilution MIC. The class given is cell-based. Here is the method:
as §1

Experiment [12] relates to Staphylococcus aureus X778. The experiment can be described thus: broth micro-dilution MIC. In kind it is cell-based. As to the method:
as §1

In experiment [13] the test system is Staphylococcus aureus 446. The experiment can be described thus: broth micro-dilution MIC. The class given is cell-based. Here is the method:
as §1

For experiment [14], the system named is Staphylococcus aureus SA1199. The experiment is described as follows: broth micro-dilution MIC. The class given is cell-based. Here is the method:
as §1

For experiment [15], the system named is Staphylococcus aureus X400. The experiment can be described thus: broth micro-dilution MIC. In kind it is cell-based. Here is the method:
as §1

For experiment [16], the system named is Staphylococcus aureus S13E. In kind it is cell-based. Here is the method: as §1
Experiment [17] concerns Staphylococcus aureus SA1199B. In kind it is cell-based. Here is the method: as §1
The test system of experiment [18] is Staphylococcus epidermidis 270. The experiment can be described thus: broth micro-dilution MIC. In kind it is cell-based. As to the method: as §2
Experiment [19] relates to Staphylococcus haemolyticus 415. The experiment can be described thus: broth micro-dilution MIC. In kind it is cell-based. Here is the method: as §2
Experiment [20] deals with Staphylococcus haemolyticus 105. The experiment is described as follows: broth micro-dilution MIC. The class given is cell-based. Here is the method:
as §2

For experiment [21], the system named is Streptococcus pyogenes C203. The experiment can be described thus: broth micro-dilution MIC. In kind it is cell-based. Here is the method: as §1
Experiment [22] deals with Streptococcus pneumoniae P1. The experiment can be described thus: broth micro-dilution MIC. The class given is cell-based. Here is the method:
as §2

Values after ≈ are worked out from the molar mass of the structure shown.

Regarding `CCCCCC1CCC(c2ccc(CNC3(C)CC(OC4C(Oc5c6cc7cc5Oc5ccc(cc5Cl)C(OC5CC(C)(N)C(O)C(C)O5)C5NC(=O)C(NC(=O)C7NC(=O)C(CC(N)=O)NC(=O)C(NC(=O)C(CC(C)C)NC)C(O)c7ccc(c(Cl)c7)O6)c6ccc(O)c(c6)-c6c(O)cc(O)cc6C(C(=O)O)NC5=O)OC(CO)C(O)C4O)OC(C)C3O)cc2)CC1` (centres unmarked) [Compound 34], the MIC in experiment [1] was 2 µg/mL (≈ 1.09 µM); in experiment [2], 8 µg/mL (≈ 4.36 µM); in experiment [3] it was 8 µg/mL (≈ 4.36 µM); in [4], 8 µg/mL (≈ 4.36 µM); in experiment [5], 2 µg/mL (≈ 1.09 µM); in experiment [8], 4 µg/mL (≈ 2.18 µM). Besides, the values for the MIC in [9] and in experiment [10] were 4 µg/mL (≈ 2.18 µM) and 8 µg/mL (≈ 4.36 µM), respectively. In experiment [6], the “mean geometric MIC, Vancomycin Resistant Strains” value was found to be 4.0 µg/mL. For the same molecule, the “mean geometric MIC, Vancomycin Sensitive Strains” value in [7] amounted to 3.4 µg/mL.
`CNC(CC(C)C)C(=O)NC1C(=O)NC(CC(N)=O)C(=O)NC2C(=O)NC3C(=O)NC(C(=O)NC(C(=O)O)c4cc(O)cc(O)c4-c4cc3ccc4O)C(OC3CC(C)(N)C(O)C(C)O3)c3ccc(c(Cl)c3)Oc3cc2cc(c3OC2OC(CO)C(O)C(O)C2OC2CC(C)(NCc3ccc(-c4ccc(OC)cc4)s3)C(O)C(C)O2)Oc2ccc(cc2Cl)C1O` (centres unmarked) [Compound 71]: the MIC in [11] came to 2 µg/mL (≈ 1.11 µM); in experiment [2], 2 µg/mL (≈ 1.11 µM); in experiment [4], 4 µg/mL (≈ 2.23 µM); in [12] it was 2 µg/mL (≈ 1.11 µM); in experiment [13], 4 µg/mL (≈ 2.23 µM); in experiment [14], 1 µg/mL (≈ 0.557 µM). The MIC in experiment [15] was found to be 1 µg/mL (≈ 0.557 µM); in experiment [16] it was 1 µg/mL (≈ 0.557 µM); in experiment [17], 4 µg/mL (≈ 2.23 µM); in experiment [8] it was 8 µg/mL (≈ 4.46 µM); in [18] it was 2 µg/mL (≈ 1.11 µM); in experiment [9], 4 µg/mL (≈ 2.23 µM). Moreover, the MIC in [19] came out at 8 µg/mL (≈ 4.46 µM); in [20] it was 16 µg/mL (≈ 8.91 µM); in [10], 1 µg/mL (≈ 0.557 µM). Further, the “mean geometric MIC, Vancomycin Resistant Strains” value in experiment [6] is 11 µg/mL. In [7], the “mean geometric MIC, Vancomycin Sensitive Strains” value turned out to be 0.57 µg/mL.
For the molecule `CCN(CC)CCOc1ccc(CNC2(C)CC(OC3C(Oc4c5cc6cc4Oc4ccc(cc4Cl)C(OC4CC(C)(N)C(O)C(C)O4)C4NC(=O)C(NC(=O)C6NC(=O)C(CC(N)=O)NC(=O)C(NC(=O)C(CC(C)C)NC)C(O)c6ccc(c(Cl)c6)O5)c5ccc(O)c(c5)-c5c(O)cc(O)cc5C(C(=O)O)NC4=O)OC(CO)C(O)C3O)OC(C)C2O)cc1` (centres unmarked) [Compound 83], the MIC in experiment [21] is ≤ 0.06 µg/mL; in experiment [1], 0.125 µg/mL (≈ 0.0695 µM); in [2], 0.5 µg/mL (≈ 0.278 µM); in experiment [4], 2 µg/mL (≈ 1.11 µM); in experiment [12] it was 0.5 µg/mL (≈ 0.278 µM); in experiment [13] it was 1 µg/mL (≈ 0.556 µM). Moreover, the minimum inhibitory concentration (MIC) was 2 µg/mL (≈ 1.11 µM) in experiment [14]; 2 µg/mL (≈ 1.11 µM) in experiment [15]; 0.125 µg/mL (≈ 0.0695 µM) in experiment [16]; 1 µg/mL (≈ 0.556 µM) in experiment [17]; ≤ 0.06 µg/mL in experiment [22]; 0.5 µg/mL (≈ 0.278 µM) in experiment [8]. Further, the MIC in experiment [18] is 2 µg/mL (≈ 1.11 µM); in [9], 8 µg/mL (≈ 4.45 µM); in [19], 4 µg/mL (≈ 2.22 µM); in experiment [20], 2 µg/mL (≈ 1.11 µM); in [10], 0.5 µg/mL (≈ 0.278 µM). In experiment [6], the “mean geometric MIC, Vancomycin Resistant Strains” value is 54 µg/mL. The “mean geometric MIC, Vancomycin Sensitive Strains” value in experiment [7] worked out at 1.7 µg/mL.
In the case of `CNC(CC(C)C)C(=O)NC1C(=O)NC(CC(N)=O)C(=O)NC2C(=O)NC3C(=O)NC(C(=O)NC(C(=O)O)c4cc(O)cc(O)c4-c4cc3ccc4O)C(OC3CC(C)(N)C(O)C(C)O3)c3ccc(c(Cl)c3)Oc3cc2cc(c3OC2OC(CO)C(O)C(O)C2OC2CC(C)(NCc3ccc(N4CCN(C)CC4)cc3)C(O)C(C)O2)Oc2ccc(cc2Cl)C1O` (centres unmarked) [Compound 146], the MIC is ≤ 0.06 µg/mL in experiment [21]; ≤ 0.06 µg/mL in experiment [1]; 1 µg/mL (≈ 0.562 µM) in experiment [11]; 1 µg/mL (≈ 0.562 µM) in [2]; 2 µg/mL (≈ 1.12 µM) in experiment [4]; ≤ 0.06 µg/mL in [5]. Besides, the MIC is ≤ 0.06 µg/mL in experiment [12]; 0.5 µg/mL (≈ 0.281 µM) in [13]; ≤ 0.06 µg/mL in [14]; 0.5 µg/mL (≈ 0.281 µM) in experiment [15]; 0.5 µg/mL (≈ 0.281 µM) in experiment [16]; ≤ 0.06 µg/mL in experiment [17]. The MIC is ≤ 0.06 µg/mL in experiment [22]; 0.5 µg/mL (≈ 0.281 µM) in experiment [8]; 2 µg/mL (≈ 1.12 µM) in [18]; 8 µg/mL (≈ 4.49 µM) in experiment [9]; 4 µg/mL (≈ 2.25 µM) in experiment [19]; 2 µg/mL (≈ 1.12 µM) in [20]. This molecule had an MIC in [10] of 0.5 µg/mL (≈ 0.281 µM). Further, the “mean geometric MIC, Vancomycin Sensitive Strains” value in experiment [7] amounted to 1.5 µg/mL.
As for `CNC(CC(C)C)C(=O)NC1C(=O)NC(CC(N)=O)C(=O)NC2C(=O)NC3C(=O)NC(C(=O)NC(C(=O)O)c4cc(O)cc(O)c4-c4cc3ccc4O)C(OC3CC(C)(N)C(O)C(C)O3)c3ccc(c(Cl)c3)Oc3cc2cc(c3OC2OC(CO)C(O)C(O)C2OC2CC(C)(NCC3=CCC4CC3C4(C)C)C(O)C(C)O2)Oc2ccc(cc2Cl)C1O` (centres unmarked) [Compound 170], the MIC in [21] was ≤ 0.06 µg/mL; in experiment [1] it was ≤ 0.06 µg/mL; in [11], 0.5 µg/mL (≈ 0.29 µM); in experiment [2] it was 0.5 µg/mL (≈ 0.29 µM); in [4] it was 0.5 µg/mL (≈ 0.29 µM); in experiment [5], ≤ 0.06 µg/mL. In addition, the MIC in experiment [12] is 1 µg/mL (≈ 0.579 µM); in experiment [13], 2 µg/mL (≈ 1.16 µM); in experiment [14], 1 µg/mL (≈ 0.579 µM); in [15], 0.5 µg/mL (≈ 0.29 µM); in experiment [22] it was ≤ 0.06 µg/mL; in [8] it was 4 µg/mL (≈ 2.32 µM). In addition, the MIC in experiment [18] is 1 µg/mL (≈ 0.579 µM); in experiment [9] it was 2 µg/mL (≈ 1.16 µM); in experiment [19] it was 4 µg/mL (≈ 2.32 µM); in [20] it was 4 µg/mL (≈ 2.32 µM); in [10], ≤ 0.06 µg/mL. Besides, in [6], the “mean geometric MIC, Vancomycin Resistant Strains” value was determined as 8.0 µg/mL. Further, the “mean geometric MIC, Vancomycin Sensitive Strains” value in experiment [7] was 0.22 µg/mL.
Regarding `CNC(CC(C)C)C(=O)NC1C(=O)NC(CC(N)=O)C(=O)NC2C(=O)NC3C(=O)NC(C(=O)NC(C(=O)O)c4cc(O)cc(O)c4-c4cc3ccc4O)C(OC3CC(C)(N)C(O)C(C)O3)c3ccc(c(Cl)c3)Oc3cc2cc(c3OC2OC(CO)C(O)C(O)C2OC2CC(C)(NCc3ccc(NC(=O)c4cccc(F)c4)cc3)C(O)C(C)O2)Oc2ccc(cc2Cl)C1O` (centres unmarked) [Compound 194], the MIC is ≤ 0.06 µg/mL in experiment [21]; ≤ 0.06 µg/mL in experiment [1]; ≤ 0.06 µg/mL in experiment [2]; 0.5 µg/mL (≈ 0.275 µM) in experiment [4]; ≤ 0.06 µg/mL in [5]; 0.5 µg/mL (≈ 0.275 µM) in experiment [12]. Further, the MIC is ≤ 0.06 µg/mL in experiment [13]; 0.5 µg/mL (≈ 0.275 µM) in experiment [14]; ≤ 0.06 µg/mL in [15]; ≤ 0.06 µg/mL in [16]; ≤ 0.06 µg/mL in experiment [22]; 2 µg/mL (≈ 1.1 µM) in experiment [8]. For the same molecule, the MIC in experiment [18] is 0.5 µg/mL (≈ 0.275 µM); in experiment [9], ≤ 0.06 µg/mL; in [19], 2 µg/mL (≈ 1.1 µM); in experiment [20], 1 µg/mL (≈ 0.55 µM); in experiment [10], ≤ 0.06 µg/mL. Moreover, in experiment [6], the “mean geometric MIC, Vancomycin Resistant Strains” value came out at 2.4 µg/mL. Also, in [7], the “mean geometric MIC, Vancomycin Sensitive Strains” value turned out to be 0.083 µg/mL.

The values are drawn from patent US5840684A, “Glycopeptide antibiotic derivatives” (Eli Lilly and Company, priority 1995, dated 1998).
